Measured values published in ChEMBL document CHEMBL5352457, “Discovery of orally active 1,4,5,6,8-pentaazaacenaphthylens as novel, selective, and potent covalent BTK inhibitors for the treatment of rheumatoid arthritis” (Eur J Med Chem, 2023).
≈ marks a conversion by molar mass, not a printed value.

Key:
in vivo [1] = settings: Sprague-Dawley, rat, po, 10 mg/kg
in vivo [2] = settings: Sprague-Dawley, rat, po, 10 mg/kg; remark: listed apart in the source
in vivo [3] = settings: Sprague-Dawley, rat, iv, 1 mg/kg
in vivo [4] = settings: Sprague-Dawley, rat, po, 10 mg/kg; remark: listed apart in the source
in vivo [5] = settings: Sprague-Dawley, rat, iv, 1 mg/kg; remark: listed apart in the source
in vivo [6] = settings: Sprague-Dawley, rat, iv, 1 mg/kg; remark: listed apart in the source
in vivo [7] = settings: Sprague-Dawley, rat, po, 10 mg/kg; remark: listed apart in the source
in vivo [8] = settings: Sprague-Dawley, rat, plasma, po, 10 mg/kg
physchem [9] = settings: buffer, pH 7.4
physchem [10] = settings: buffer, pH 7

## C=CC(=O)N1CC[C@@H](N2N=C(Nc3ccc(Oc4ccccc4)cc3)c3c[nH]c4ncnc2c34)C1
In vivo [1]
  Cmax at 24 h: 52.5 ng/mL
In vivo [2]
  Tmax at 24 h: 1 h
In vivo [3]
  AUC at 24 h: 454 ng·h/mL
In vivo [4]
  AUC at 24 h: 164 ng·h/mL
In vivo [5]
  clearance at 24 h: 36.8 mL/min/kg
In vivo [6]
  Vd at 24 h: 1.67 L/kg
In vivo [7]
  bioavailability at 24 h: 3.6%
In vivo [8]
  concentration at 1 h: 125 nM
Physchem [9]
  remaining at 24 h: 80.2%
Physchem [10]
  solubility: 174 µM (≈ 81 µg/mL)
